Data published in patent publication US20080009418A1, “Selective Inhibitors” (Alchemia LTD., priority 2004, published 2008).

Legend:
Human opioid (ORL1) = target: T1, Human opioid (ORL1) (Homo sapiens, UniProt P41146); assay: Radioligand binding, human opioid ORL1 membranes, FlashPlate, [125I]-Nociceptin; settings: compound at 10 μM, [125I]-Nociceptin
T1 construct: purchased Perkin Elmer Biosignal
Method in brief: (§1)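 Cloned human receptor membranes were coated onto FlashPlate wells and incubated with radioligand and compound (added from a 0.5 mM DMSO daughter plate) for 1 hour at room temperature in the dark. Scintillation counting gave percent inhibition, with DMSO defining total and reference ligand defining non-specific binding.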

Human δ-opioid (DOP) = target: T2, Human δ-opioid (DOP) (Homo sapiens, UniProt P41143); assay: Radioligand binding, human δ-opioid (DOP) membranes, FlashPlate, [3H]-Bremazocine; settings: compound at 10 μM; [3H]-Bremazocine
T2 construct: purchased Perkin Elmer Biosignal
Method in brief: as §1

[1] = target: T3, Human neuropeptide Y (NPY-Y1) (Homo sapiens, UniProt P25929); assay: Radioligand binding, human neuropeptide Y NPY-Y1 membranes, FlashPlate, [125I]-PYY; settings: compound at 10 μM; [125I]-PYY
T3 construct: purchased Perkin Elmer Biosignal
T3 sequence (P25929 1-384): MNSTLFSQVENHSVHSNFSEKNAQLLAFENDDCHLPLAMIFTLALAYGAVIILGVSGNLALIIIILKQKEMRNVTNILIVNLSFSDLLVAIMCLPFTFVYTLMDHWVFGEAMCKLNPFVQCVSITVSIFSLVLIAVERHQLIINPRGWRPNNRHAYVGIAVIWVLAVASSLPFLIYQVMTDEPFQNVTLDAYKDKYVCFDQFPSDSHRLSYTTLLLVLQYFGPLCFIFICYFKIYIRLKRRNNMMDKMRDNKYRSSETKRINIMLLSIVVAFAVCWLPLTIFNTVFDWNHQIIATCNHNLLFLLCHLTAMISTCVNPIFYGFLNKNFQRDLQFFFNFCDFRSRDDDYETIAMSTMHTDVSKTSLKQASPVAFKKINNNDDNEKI
Method in brief: as §1

[2] = target: T4, Human melanin-concentrating hormone (MCH1) (Homo sapiens, UniProt Q99705); assay: Radioligand binding, human melanin-concentrating hormone MCH1 membranes, FlashPlate, [125I]-S36057; settings: compound at 10 μM, [125I]-S36057
T4 construct: purchased Perkin Elmer Biosignal
Method in brief: as §1

Human κ-Opioid (KOP) = target: T5, Human κ-Opioid (KOP) (Homo sapiens, UniProt P41145); assay: Radioligand binding, human κ-opioid (KOP) membranes, filtration, [3H]-Diprenorphine; settings: compound at 10 μM; [3H]-Diprenorphine
T5 construct: purchased Perkin Elmer Biosignal
Method in brief: (§2)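 Filtration binding on cloned human receptor membranes (1 Unit/well), [125I]-Substance P for NK1 and [3H]-Diprenorphine for KOP, 1 h at room temperature. Filters PEI-presoaked, washed with cold 50 mM Tris-HCl pH 7.4, counted by scintillation; percent inhibition calculated, reference ligand defining non-specific binding.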

Human μ-opioid (MOP) = target: T6, Human μ-opioid (MOP) (Homo sapiens, UniProt P35372); assay: Radioligand binding, human μ-opioid (MOP) membranes, FlashPlate, [3H]-Naloxone; settings: compound at 10 μM, [3H]-Naloxone
T6 construct: purchased Perkin Elmer Biosignal
Method in brief: as §1

Mouse urotensin (mUR2) = target: T7, Mouse urotensin (mUR2) (Mus musculus, UniProt Q8VIH9); assay: Radioligand binding, mouse urotensin mUR2 membranes, FlashPlate, [125I]-Urotensin II; settings: compound at 10 μM; [125I]-Urotensin II
T7 construct: purchased Perkin Elmer Biosignal
T7 sequence (Q8VIH9 1-385): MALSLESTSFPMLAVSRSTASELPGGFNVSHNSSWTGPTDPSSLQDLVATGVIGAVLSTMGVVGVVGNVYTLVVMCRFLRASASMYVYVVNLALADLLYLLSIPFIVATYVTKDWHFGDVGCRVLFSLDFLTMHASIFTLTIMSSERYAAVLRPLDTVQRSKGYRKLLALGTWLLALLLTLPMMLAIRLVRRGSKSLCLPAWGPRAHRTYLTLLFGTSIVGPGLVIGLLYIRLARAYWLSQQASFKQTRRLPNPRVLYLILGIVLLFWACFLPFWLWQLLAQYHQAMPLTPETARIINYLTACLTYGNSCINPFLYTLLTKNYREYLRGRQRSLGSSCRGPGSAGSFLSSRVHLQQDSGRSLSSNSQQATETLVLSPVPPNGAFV
Method in brief: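 Cloned mouse urotensin (mUR2) receptor membranes from Perkin Elmer Biosignal were immobilized in FlashPlate microplates using a proprietary coating. Each well got 19.5 μl buffer, then 0.5 μl of DMSO, reference ligand, or compound. Adding 5 μl of [125I]-Urotensin II, diluted to 5× final concentration in binding buffer, started binding. Plates were sealed with TopSeal-A and incubated 1 hour at room temperature in the dark. Wells were counted for 30 seconds each on a TopCount after a 60-second delay, and percentage inhibition was calculated.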

Human Melanocortin (MC3) = target: T8, Human Melanocortin (MC3) (Homo sapiens, UniProt P41968); assay: Radioligand binding, human melanocortin MC3 membranes, FlashPlate, [125I]-NDP-αMSH; settings: compound at 10 μM, [125I]-NDP-αMSH
T8 construct: purchased Perkin Elmer Biosignal
Method in brief: as §1

Human neurokinin (NK1) = target: T9, Human neurokinin (NK1) (Homo sapiens, UniProt P25103); assay: Radioligand binding, human neurokinin NK1 membranes, filtration, [125I]-Substance P; settings: compound at 10 μM; [125I]-Substance P
T9 construct: purchased Perkin Elmer Biosignal
Method in brief: as §2

Human melanocortin (MC5) = target: T10, Human melanocortin (MC5) (Homo sapiens, UniProt P33032); assay: Radioligand binding, human melanocortin MC5 membranes, FlashPlate, [125I]-NDP-αMSH; settings: compound at 10 μM; [125I]-NDP-αMSH
T10 construct: purchased Perkin Elmer Biosignal
Method in brief: as §1

Human Melanocortin (MC4) = target: T11, Human Melanocortin (MC4) (Homo sapiens, UniProt P32245); assay: Radioligand binding, human melanocortin MC4 membranes, FlashPlate, [125I]-NDP-αMSH; settings: compound at 10 μM, [125I]-NDP-αMSH
T11 construct: purchased Perkin Elmer Biosignal
Method in brief: as §1

T10 sequence (P33032 whole entry): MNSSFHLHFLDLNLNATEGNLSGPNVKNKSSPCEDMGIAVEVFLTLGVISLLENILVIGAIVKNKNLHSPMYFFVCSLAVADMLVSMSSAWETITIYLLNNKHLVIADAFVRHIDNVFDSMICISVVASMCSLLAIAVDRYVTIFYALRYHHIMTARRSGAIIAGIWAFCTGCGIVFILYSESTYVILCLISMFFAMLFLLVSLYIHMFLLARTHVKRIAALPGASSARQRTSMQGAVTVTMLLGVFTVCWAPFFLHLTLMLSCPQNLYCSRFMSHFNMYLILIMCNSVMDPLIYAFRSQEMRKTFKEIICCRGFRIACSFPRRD
T2 sequence (P41143 whole entry): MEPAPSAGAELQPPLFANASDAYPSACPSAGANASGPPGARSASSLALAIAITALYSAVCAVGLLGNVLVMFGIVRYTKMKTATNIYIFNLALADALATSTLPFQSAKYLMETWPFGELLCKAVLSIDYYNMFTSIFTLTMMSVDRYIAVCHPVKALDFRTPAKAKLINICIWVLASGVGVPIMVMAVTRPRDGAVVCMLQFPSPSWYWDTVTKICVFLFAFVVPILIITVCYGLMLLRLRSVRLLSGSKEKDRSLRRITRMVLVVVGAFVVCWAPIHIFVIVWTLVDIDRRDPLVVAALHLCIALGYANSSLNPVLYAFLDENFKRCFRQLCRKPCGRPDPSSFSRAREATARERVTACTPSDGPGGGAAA
T9 sequence (P25103 whole entry): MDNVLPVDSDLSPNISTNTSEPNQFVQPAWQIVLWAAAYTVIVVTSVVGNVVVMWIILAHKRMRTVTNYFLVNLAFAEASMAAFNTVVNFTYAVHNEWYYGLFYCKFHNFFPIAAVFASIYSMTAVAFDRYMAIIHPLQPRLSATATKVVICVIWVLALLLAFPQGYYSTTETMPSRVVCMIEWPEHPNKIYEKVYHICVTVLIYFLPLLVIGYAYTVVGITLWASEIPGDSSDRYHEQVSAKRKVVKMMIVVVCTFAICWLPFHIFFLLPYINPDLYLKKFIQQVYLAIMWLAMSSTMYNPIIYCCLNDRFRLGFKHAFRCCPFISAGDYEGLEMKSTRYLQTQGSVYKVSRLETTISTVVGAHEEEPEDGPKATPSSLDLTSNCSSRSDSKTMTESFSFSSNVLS
T8 sequence (P41968 whole entry): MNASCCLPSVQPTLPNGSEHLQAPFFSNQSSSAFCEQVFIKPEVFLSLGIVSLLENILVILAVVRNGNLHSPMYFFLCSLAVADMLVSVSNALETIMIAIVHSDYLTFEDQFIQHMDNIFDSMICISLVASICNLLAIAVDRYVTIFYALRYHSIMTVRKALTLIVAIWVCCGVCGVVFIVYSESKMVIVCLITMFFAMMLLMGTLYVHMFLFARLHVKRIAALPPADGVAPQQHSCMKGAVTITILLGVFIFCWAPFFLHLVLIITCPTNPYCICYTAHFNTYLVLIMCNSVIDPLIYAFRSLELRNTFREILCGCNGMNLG
T1 sequence (P41146 whole entry): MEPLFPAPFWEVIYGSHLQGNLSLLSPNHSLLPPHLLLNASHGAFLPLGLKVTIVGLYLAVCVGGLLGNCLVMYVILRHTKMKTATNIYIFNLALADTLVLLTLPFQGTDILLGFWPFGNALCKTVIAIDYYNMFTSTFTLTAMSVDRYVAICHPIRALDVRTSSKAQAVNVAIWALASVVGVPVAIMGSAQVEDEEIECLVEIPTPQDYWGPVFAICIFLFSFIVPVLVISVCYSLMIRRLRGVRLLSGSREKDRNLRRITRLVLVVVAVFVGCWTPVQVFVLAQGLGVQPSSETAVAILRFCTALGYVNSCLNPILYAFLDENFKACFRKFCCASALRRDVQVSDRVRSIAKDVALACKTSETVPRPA
T11 sequence (P32245 whole entry): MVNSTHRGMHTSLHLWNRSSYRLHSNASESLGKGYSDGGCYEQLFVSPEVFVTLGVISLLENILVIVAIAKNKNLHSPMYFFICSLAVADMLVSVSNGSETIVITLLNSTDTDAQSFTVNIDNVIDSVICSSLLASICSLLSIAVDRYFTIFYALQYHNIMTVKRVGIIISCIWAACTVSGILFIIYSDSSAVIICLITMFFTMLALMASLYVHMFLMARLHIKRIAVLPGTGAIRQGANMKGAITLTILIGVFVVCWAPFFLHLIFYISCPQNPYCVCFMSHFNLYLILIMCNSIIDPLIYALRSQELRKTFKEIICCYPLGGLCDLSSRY
T5 sequence (P41145 whole entry): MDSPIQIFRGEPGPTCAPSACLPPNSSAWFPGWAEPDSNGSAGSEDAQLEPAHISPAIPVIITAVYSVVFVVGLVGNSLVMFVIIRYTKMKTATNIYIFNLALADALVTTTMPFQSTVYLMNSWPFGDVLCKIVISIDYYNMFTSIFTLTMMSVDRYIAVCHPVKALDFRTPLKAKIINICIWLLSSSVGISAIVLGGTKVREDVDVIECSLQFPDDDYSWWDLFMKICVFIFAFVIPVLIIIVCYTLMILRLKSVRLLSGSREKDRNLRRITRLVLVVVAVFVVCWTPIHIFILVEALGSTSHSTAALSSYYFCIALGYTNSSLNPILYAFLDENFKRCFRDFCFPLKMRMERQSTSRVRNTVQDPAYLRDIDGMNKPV
T6 sequence (P35372 whole entry): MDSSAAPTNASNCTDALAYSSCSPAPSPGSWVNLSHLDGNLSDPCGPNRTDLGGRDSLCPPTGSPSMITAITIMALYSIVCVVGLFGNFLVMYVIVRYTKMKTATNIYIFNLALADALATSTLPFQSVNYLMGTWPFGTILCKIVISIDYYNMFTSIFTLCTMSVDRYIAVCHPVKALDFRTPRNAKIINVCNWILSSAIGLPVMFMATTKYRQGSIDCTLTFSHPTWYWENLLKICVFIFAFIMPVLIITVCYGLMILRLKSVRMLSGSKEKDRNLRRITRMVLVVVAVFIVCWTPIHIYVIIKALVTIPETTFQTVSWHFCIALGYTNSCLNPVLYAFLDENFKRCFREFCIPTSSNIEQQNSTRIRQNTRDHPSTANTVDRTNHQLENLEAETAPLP
T4 sequence (Q99705 whole entry): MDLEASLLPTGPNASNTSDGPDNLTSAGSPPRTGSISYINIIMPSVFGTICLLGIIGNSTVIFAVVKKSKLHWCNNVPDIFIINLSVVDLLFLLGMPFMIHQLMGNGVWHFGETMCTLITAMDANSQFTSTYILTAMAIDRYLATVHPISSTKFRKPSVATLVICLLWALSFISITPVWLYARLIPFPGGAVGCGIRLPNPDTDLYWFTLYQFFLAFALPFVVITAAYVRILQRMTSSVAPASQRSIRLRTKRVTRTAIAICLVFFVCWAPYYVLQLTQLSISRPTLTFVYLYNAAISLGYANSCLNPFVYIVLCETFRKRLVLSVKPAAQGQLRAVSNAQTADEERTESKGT

| SMILES | A10: inhibition of radioligand binding, human opioid (ORL1) (Human opioid (ORL1); 10 µM) | A1: inhibition of radioligand binding, human δ-opioid (DOP) (Human δ-opioid (DOP)) | A9: inhibition of radioligand binding, human neuropeptide Y (NPY-Y1) [1] | A6: inhibition of radioligand binding, human melanin-concentrating hormone (MCH1) [2] | A2: inhibition of radioligand binding, human κ-opioid (KOP) (Human κ-Opioid (KOP)) | A7: inhibition of radioligand binding, human μ-opioid (MOP) (Human μ-opioid (MOP)) | A11: inhibition of radioligand binding, mouse urotensin (mUR2) (Mouse urotensin (mUR2)) | A3: inhibition of radioligand binding, human melanocortin (MC3) (Human Melanocortin (MC3)) | A8: inhibition of radioligand binding, human neurokinin (NK1) (Human neurokinin (NK1)) | A5: inhibition of radioligand binding, human melanocortin (MC5) (Human melanocortin (MC5)) | A4: inhibition of radioligand binding, human melanocortin (MC4) (Human Melanocortin (MC4); 10 µM) | A10: inhibition of radioligand binding, human opioid (ORL1) (Human opioid (ORL1)) | A6: inhibition of radioligand binding, human melanin-concentrating hormone (MCH1) ([2]; 10 µM) | A7: inhibition of radioligand binding, human μ-opioid (MOP) (Human μ-opioid (MOP); 10 µM) | A4: inhibition of radioligand binding, human melanocortin (MC4) (Human Melanocortin (MC4)) | A3: inhibition of radioligand binding, human melanocortin (MC3) (Human Melanocortin (MC3); 10 µM) |
| --- | --- | --- | --- | --- | --- | --- | --- | --- | --- | --- | --- | --- | --- | --- | --- | --- |
| NCCCC(=O)NC1C(OCc2ccc(Cl)cc2)OC(COCc2ccccc2)C(O)C1OCc1ccc2ccccc2c1 (single isomer, unassigned) [compound 498] | + (“+” indicates greater than 50% inhibition at 10 μM) | − (“−” indicates less than 50% inhibition at 10 μM) | − (“−” indicates less than 50% inhibition at 10 μM) | − (“−” indicates less than 50% inhibition at 10 μM) | − (“−” indicates less than 50% inhibition at 10 μM) | − (“−” indicates less than 50% inhibition at 10 μM) | − (“−” indicates less than 50% inhibition at 10 μM) | − (“−” indicates less than 50% inhibition at 10 μM) | + (“+” indicates greater than 50% inhibition at 10 μM) | + (“+” indicates greater than 50% inhibition at 10 μM) | + (“+” indicates greater than 50% inhibition at 10 μM) | – | – | – | – | – |
| NCCCC(=O)NC1C(OCc2ccc(Cl)cc2)OC(COCc2ccc(Cl)cc2)C(O)C1OCc1ccc2ccccc2c1 (single isomer, unassigned) [compound 499] | – | − (“−” indicates less than 50% inhibition at 10 μM) | − (“−” indicates less than 50% inhibition at 10 μM) | – | − (“−” indicates less than 50% inhibition at 10 μM) | – | − (“−” indicates less than 50% inhibition at 10 μM) | + (“+” indicates greater than 50% inhibition at 10 μM) | + (“+” indicates greater than 50% inhibition at 10 μM) | + (“+” indicates greater than 50% inhibition at 10 μM) | – | + (“+” indicates greater than 50% inhibition at 10 μM) | − (“−” indicates less than 50% inhibition at 10 μM) | − (“−” indicates less than 50% inhibition at 10 μM) | + (“+” indicates greater than 50% inhibition at 10 μM) | – |
| NCCCC(=O)NC1C(OCc2ccc(Cl)cc2)OC(COCc2ccc(Cl)cc2)C(O)C1OCc1ccc2ccccc2c1 (single isomer, unassigned) [compound 500] | – | − (“−” indicates less than 50% inhibition at 10 μM) | − (“−” indicates less than 50% inhibition at 10 μM) | – | − (“−” indicates less than 50% inhibition at 10 μM) | – | − (“−” indicates less than 50% inhibition at 10 μM) | + (“+” indicates greater than 50% inhibition at 10 μM) | + (“+” indicates greater than 50% inhibition at 10 μM) | + (“+” indicates greater than 50% inhibition at 10 μM) | – | + (“+” indicates greater than 50% inhibition at 10 μM) | + (“+” indicates greater than 50% inhibition at 10 μM) | + (“+” indicates greater than 50% inhibition at 10 μM) | + (“+” indicates greater than 50% inhibition at 10 μM) | – |
| NCCCC(=O)NC1C(OCc2ccc(Cl)cc2)OC(COCc2ccc3ccccc3c2)C(O)C1OCc1ccccc1 (single isomer, unassigned) [compound 501] | – | − (“−” indicates less than 50% inhibition at 10 μM) | − (“−” indicates less than 50% inhibition at 10 μM) | – | − (“−” indicates less than 50% inhibition at 10 μM) | – | − (“−” indicates less than 50% inhibition at 10 μM) | – | + (“+” indicates greater than 50% inhibition at 10 μM) | + (“+” indicates greater than 50% inhibition at 10 μM) | – | + (“+” indicates greater than 50% inhibition at 10 μM) | − (“−” indicates less than 50% inhibition at 10 μM) | − (“−” indicates less than 50% inhibition at 10 μM) | + (“+” indicates greater than 50% inhibition at 10 μM) | + (“+” indicates greater than 50% inhibition at 10 μM) |
| NCCCC(=O)NC1C(OCc2ccc(Cl)cc2)OC(COCc2ccc3ccccc3c2)C(O)C1OCc1ccccc1 (single isomer, unassigned) [compound 502] | – | − (“−” indicates less than 50% inhibition at 10 μM) | − (“−” indicates less than 50% inhibition at 10 μM) | – | − (“−” indicates less than 50% inhibition at 10 μM) | – | − (“−” indicates less than 50% inhibition at 10 μM) | – | + (“+” indicates greater than 50% inhibition at 10 μM) | + (“+” indicates greater than 50% inhibition at 10 μM) | – | + (“+” indicates greater than 50% inhibition at 10 μM) | + (“+” indicates greater than 50% inhibition at 10 μM) | + (“+” indicates greater than 50% inhibition at 10 μM) | + (“+” indicates greater than 50% inhibition at 10 μM) | − (“−” indicates less than 50% inhibition at 10 μM) |
